# Assay results published in patent publication US20190225651A1, “COMPOUNDS FOR INDUCING TISSUE FORMATION AND USES THEREOF” (HISTIDE AG, priority 2015, published 2019).
# Ends that are not written are not given here.
# Test system: Hair Follicle Stem Cells
# Test: Loss of quiescence and activation of hair follicle stem cells (Sox2, BMP-6)
# Assay type: cell-based, Mouse
# Settings: not given
# Description: Isolated Hair Follicle Stem Cells were cultured with and without GFR-binding compounds as defined herein (SEQ ID NO: 29 and 30). An increase in the Sox2 protein expression was observed illustrating the activation of these stem cells (FIG. 13a). In parallel, a decrease in the BMP-6 release in the cell culture medium was observed (FIG. 13b).
Substance,BMP-6 release in the cell culture medium,Sox2 protein expression
"SEQ ID NO: 30: cyclic GFR-binding compound activating hair follicle stem cells; sequence not printed (DENEKSSLSILFFDENEKGGGGGG; also: cyclic, ring type and places not given here)",decrease,increase
"SEQ ID NO: 29: cyclic GFR-binding compound activating hair follicle stem cells; sequence not printed (DENKNSSLSILFFDENKNGGGGGG; also: cyclic, ring type and places not given here)",decrease,increase

# Test system: osteoblast progenitors
# Test: Osteogenic differentiation of osteoblast progenitors on peptide-coated materials (Osteopontin staining, Runx2 Q-PCR)
# Assay type: cell-based
# Settings: 48 hours on coated apatite ceramics or type-I collagen sponge
# Description: (§1) The cells were first fixed for 20 min with 4% paraformaldehyde/PBS at 4° C. After fixation, the cells were permeabilized in PBS containing 1% Triton X-100 for 15 min. Runx2, Osterix, Stro-1, Vinculin, Phalloidin, Osteopontin, Sox2, Sox9 antibodies were visualized by treating the cells with 1% (v/v) specific monoclonal antibodies for 1 hour at 37° C. Then the samples were incubated with Alexa Fluor® 568 or 647 (F(ab′)2 fragment of IgG(H+L)) during 30 min at room temperature. The cell nuclei were counterstained in 20 ng/mL DAPI for 10 min at room temperature.
# Total RNA was extracted by using the RNeasy total RNA kit (Qiagen®) according to the manufacturer's instructions. Purified total RNA was used as a template in order to make cDNA by a reverse transcription reaction (Gibco BrI®) with random primers (Invitrogen®). The cDNA was then used as a template for a real-time PCR amplification in the presence of SYBR green reagents (Bio-Rad®) by using a thermocycler (iCycler, Biorad®). Data were analyzed with the iCycler IQ™® software and compared by the ΔΔCt method. Briefly, the mean Ct value of the target gene was normalized to its averaged Ct values of the housekeeping gene (HPRT) to give a ΔCt value, which was then normalized to a control sample to obtain a ΔΔCt value. The results were obtained from two series of experiments performed in a triplicate.
# The effect of these GFR-binding compounds as defined herein (SEQ ID NO: 19 and 20) on the differentiation of osteoblast progenitors was evaluated. These osteoblast progenitors were seeded onto the apatite ceramics or on type-I collagen sponge that were both coated with osteogenic peptides. […] This was seen from Osteopentin immunofluorescence staining after cell fixation as described in the Methods section (FIG. 7).
# An increase in the Runx2 gene expression after 24 hours of culture (FIG. 8a) was observed by using Quantitative Real Time Polymerase Chain Reaction as described in the Methods section.
row,Substance,differentiation into mature osteoblasts
1,"SEQ ID NO: 20: osteogenic cyclic GFR-binding compound of the sequence listing; sequence not printed (GTPGPSAISTLYLGGGGGGG; also: cyclic, ring type and places not given here)",differentiated into mature osteoblasts

# Same assay, conditions: versus native type-I collagen sponge or native apatite ceramics
row,Substance,production of extracellular matrix proteins such as Osteopontin (OPN)
1,"SEQ ID NO: 20: osteogenic cyclic GFR-binding compound of the sequence listing; sequence not printed (GTPGPSAISTLYLGGGGGGG; also: cyclic, ring type and places not given here)",produced extensive amounts of extracellular matrix proteins such as Osteopontin (OPN)

# Test system: hMSCs
# Test: Loss of stemness, STRO-1 immunostaining
# Assay type: cell-based, human
# Settings: compound in solution in cell culture media
# Description: as §1
# For this type of quantification the freeware image analysis ImageJ® software was used. The raw image was first converted to an 8-bit file, and then the unsharp mask feature was used (settings 1:0.2) to remove the image background (rolling ball radius 10). After smoothing, the resulting image, which appears similar to the original photomicrograph but with minimal background, was then converted to a binary image by setting a threshold. Threshold values were determined empirically by selecting a setting, which gave the most accurate binary image for a subset of randomly selected photomicrographs. The cell area was determined by manual delineation on raw fluorescent images. Total contact area and mean contact area per cell were calculated by “analyse particules” in ImageJ®. A minimum of […] per condition were analyzed. Stro-1 expression was determined using this procedure.
# hMSCs were cultured on conventional cell culture plastic plates with and without the presence in the cell culture media of different GFR-binding compounds as defined hereins (SEQ ID NO: 39 to 45) in solution. […] This was probed by Stro-1 immunostaining after cell fixation as described in the Methods section. The quantification of Stro-1 positive contact numbers and areas was performed as described in the Methods section. A minimum of 30 cells per condition were analyzed. One should note that it is commonly admitted that the expression of STRO-1 in a cell is indicative of a cell that is in a substantially non-differentiated state and the decrease of its expression of at least about 20% is indicative of a cell that has started a processus of differentiation but which may not result in the differentiation of the cell. A decrease of more than 50% would be indicative of the presence of a significant shift towards a differentiated state. A decrease of more than 70% would be indicative of the presence of a very important shift towards a differentiated state. A sustained decrease (e.g. for at least 96 h) of more than 50% or 70% would be indicative of the presence of an even more important shift towards a differentiated state.
# Likewise, hMSCs were cultured on conventional cell culture plastic plates with and without the presence in the cell culture media of different GFR-binding compounds as defined herein (SEQ ID NO: 1581 to 1606) in solution. […] This strong decrease was also confirmed after 96 h.
row,Substance,STRO-1 Expression (%) after 48 h
1,"1600 (GGGGGGGGGFDNDENVVRVPSTSSVPEKMEPLTMLYYFDNDENVV; also: cyclic, closure not given here) [compound 1600]",29%
2,"1601 (GGGGGGGGGFDNDENVVSTPPTSSTPTKMSNITTQIMFDNDENVV; also: cyclic, closure not given here) [compound 1601]",41%
3,"1599 (GGGGGGGGGDDSSNVISTPPTSSVSQKMKPLSILYVDDSSNVI; also: cyclic, closure not given here) [compound 1599]",35%
4,"1584 (GGGGGGGGGDENEKVVGIPEPSSAPVDLKPLSTLYVDENEKVV; also: cyclic, closure not given here) [compound 1584]",31%
5,"1585 (AAAAAAAAADENEKVVAASKASSVPQEEEPLPMVYYDAANNVV; also: cyclic, closure not given here) [compound 1585]",27%
6,"1595 (GGGGGGGGGDDSSNVIGIPEPSSAPTRLEPISMLYLDENEKVV; also: cyclic, closure not given here) [compound 1595]",27%
7,"1581 (GGGGGGGGGDENEKVVNDEGLESVPEDLSSLSVLFFDENEKVV; also: cyclic, closure not given here) [compound 1581]",33%
8,"1597 (GGGGGGGGGDENEKVVSTPPTSSVPTEVSPINTLYFDENEKVV; also: cyclic, closure not given here) [compound 1597]",38%
9,"1593 (GGGGGGGGGDENEKVVRVPSTSSTQVDLNAISVLYFDENEKVV; also: cyclic, closure not given here) [compound 1593]",32%
10,"1591 (AAAAAAAAADAANNVVKIPKASSSRVRLSSLSTLFFDAANNVV; also: cyclic, closure not given here) [compound 1591]",21%
11,"1604 (AAAAAAAAADAANNVVKIPKASSTQVRLRSVKTAKVDAANNVV; also: cyclic, closure not given here) [compound 1604]",35%
12,"1596 (GGGGGGGGGDENEKVVKIPKASSVSQQLEPISTLYLDENEKVV; also: cyclic, closure not given here) [compound 1596]",19%
13,"1602 (AAAAAAAAADENEKVVRVPSTSSVPAEESNITVQIMDDSSNVI; also: cyclic, closure not given here) [compound 1602]",42%
14,"1592 (GGGGGGGGGDDSSNVIAASKASSTPTDLNAISTLYFDDSSNVI; also: cyclic, closure not given here) [compound 1592]",30%
15,"1583 (GGGGGGGGGDDSSNVIRVPSTSSAPTKMNAISMLYFDENEKVV; also: cyclic, closure not given here) [compound 1583]",34%
16,"1589 (GGGGGGGGGDDSSNVISTPPTSSSRVQLSAISMLYLDDSSNVI; also: cyclic, closure not given here) [compound 1589]",22%
17,"1582 (GGGGGGGGGDDSSNVIRVPSTSSVPTGQSAISTLYLDDSSNVI; also: cyclic, closure not given here) [compound 1582]",29%
18,"1587 (AAAAAAAAADENEKVVAASKASSSRVELRSVKIAKVDDSSNVI; also: cyclic, closure not given here) [compound 1587]",33%
19,"1605 (AAAAAAAAADENEKVVAASKASSVPEKMRPVQTRKIDDSSNVI; also: cyclic, closure not given here) [compound 1605]",30%
20,"1594 (AAAAAAAAADAANNVVGIPEPSSVSQELSATSMLYYDAANNVV; also: cyclic, closure not given here) [compound 1594]",31%
21,"1588 (GGGGGGGGGDENEKVVKIPKASSTQVRLRPVQIRKIDAANNVV; also: cyclic, closure not given here) [compound 1588]",30%
22,"1603 (GGGGGGGGGFDNDENVVAASKASSVPQRLRSVKVAKVFDNDENVV; also: cyclic, closure not given here) [compound 1603]",34%
23,"1590 (GGGGGGGGGDENEKVVRVPSTSSTQVKMSAISMLYLDENEKVV; also: cyclic, closure not given here) [compound 1590]",23%
24,"1606 (GGGGGGGGGFDNDENVVGIPEPSSAPVDMRPVQIRKIFDNDENVV; also: cyclic, closure not given here) [compound 1606]",43%
25,"1586 (GGGGGGGGGDDSSNVIKIPKASSVPTGGSNITVQIMDDSSNVI; also: cyclic, closure not given here) [compound 1586]",31%
26,"1598 (AAAAAAAAADENEKVVKIPKASSVPTKMKPLSVLYVDDSSNVI; also: cyclic, closure not given here) [compound 1598]",37%
